# Results from ChEMBL document CHEMBL2440080, “Synthesis and biological evaluation of novel acylhydrazone derivatives as potential antitumor agents” (Bioorg Med Chem, 2013).
# Columns and labels:
# SF-268 = assay: Cytotoxicity against human SF268 cells after 48 hrs by sulforhodamine B assay; format: functional; conditions: SF-268, 48 h
# KM12 = assay: Cytotoxicity against human KM12 cells after 48 hrs by sulforhodamine B assay; format: functional; conditions: KM12, 48 h
# OVCAR-4 = assay: Cytotoxicity against human OVCAR4 cells after 48 hrs by sulforhodamine B assay; format: functional; conditions: OVCAR-4, 48 h
# NCI/ADR-RES = assay: Cytotoxicity against human NCI/ADR-RES cells after 48 hrs by sulforhodamine B assay; format: functional
# U-251 = assay: Cytotoxicity against human U251 cells after 48 hrs by sulforhodamine B assay; format: functional; conditions: U-251, 48 h
# HCT-116 = assay: Cytotoxicity against human HCT116 cells after 48 hrs by sulforhodamine B assay; format: functional; conditions: HCT-116, 48 h
# HOP-92 = assay: Cytotoxicity against human HOP92 cells after 48 hrs by sulforhodamine B assay; format: functional; conditions: HOP-92, 48 h
# PC-3 = assay: Cytotoxicity against human PC3 cells after 48 hrs by sulforhodamine B assay; format: functional; conditions: PC-3, 48 h
# IGROV-1 = assay: Cytotoxicity against human IGROV1 cells after 48 hrs by sulforhodamine B assay; format: functional; conditions: IGROV-1, 48 h
# LOX IMVI = assay: Cytotoxicity against human LOXIMVI cells after 48 hrs by sulforhodamine B assay; format: functional
# T47D = assay: Cytotoxicity against human T47D cells after 48 hrs by sulforhodamine B assay; format: functional
# CCRF-CEM = assay: Cytotoxicity against human CCRF-CEM cells after 48 hrs by sulforhodamine B assay; format: functional
# SNB-75 = assay: Cytotoxicity against human SNB75 cells after 48 hrs by sulforhodamine B assay; format: functional; conditions: SNB-75, 48 h
# ACHN = assay: Cytotoxicity against human ACHN cells after 48 hrs by sulforhodamine B assay; format: functional
# HCT-15 = assay: Cytotoxicity against human HCT15 cells after 48 hrs by sulforhodamine B assay; format: functional; conditions: HCT-15, 48 h
# HL-60(TB) = assay: Cytotoxicity against human HL-60(TB) cells after 48 hrs by sulforhodamine B assay; format: functional; conditions: HL-60, 48 h
# BT-549 = assay: Cytotoxicity against human BT549 cells after 48 hrs by sulforhodamine B assay; format: functional; conditions: BT-549, 48 h
# NCI-H322M = assay: Cytotoxicity against human NCI-H322M cells after 48 hrs by sulforhodamine B assay; format: functional
# [1] = Cytotoxicity against human EKVX cells after 48 hrs by sulforhodamine B assay; format: functional
# NCI-H460 = assay: Cytotoxicity against human NCI-H460 cells after 48 hrs by sulforhodamine B assay; format: functional; conditions: NCI-H460, 48 h
# MOLT-4 = assay: Cytotoxicity against human MOLT4 cells after 48 hrs by sulforhodamine B assay; format: functional; conditions: MOLT-4, 48 h
# M14 = assay: Cytotoxicity against human M14 cells after 48 hrs by sulforhodamine B assay; format: functional; conditions: M14, 48 h
# RXF 393 = assay: Cytotoxicity against human RXF393 cells after 48 hrs by sulforhodamine B assay; format: functional; conditions: RXF 393, 48 h
# RPMI-8226 = assay: Cytotoxicity against human RPMI8226 cells after 48 hrs by sulforhodamine B assay; format: functional; conditions: RPMI-8226, 48 h
# SR = assay: Cytotoxicity against human SR cells after 48 hrs by sulforhodamine B assay; format: functional
# HOP-62 = assay: Cytotoxicity against human HOP62 cells after 48 hrs by sulforhodamine B assay; format: functional; conditions: HOP-62, 48 h
# DU-145 = assay: Cytotoxicity against human DU145 cells after 48 hrs by sulforhodamine B assay; format: functional; conditions: DU-145, 48 h
# TK-10 = assay: Cytotoxicity against human TK10 cells after 48 hrs by sulforhodamine B assay; format: functional; conditions: TK-10, 48 h
# SF-295 = assay: Cytotoxicity against human SF295 cells after 48 hrs by sulforhodamine B assay; format: functional; conditions: SF-295, 48 h
# OVCAR-3 = assay: Cytotoxicity against human OVCAR3 cells after 48 hrs by sulforhodamine B assay; format: functional; conditions: OVCAR-3, 48 h
# UACC-62 = assay: Cytotoxicity against human UACC62 cells after 48 hrs by sulforhodamine B assay; format: functional; conditions: UACC-62, 48 h
# CAKI-1 = assay: Cytotoxicity against human CAKI-1 cells after 48 hrs by sulforhodamine B assay; format: functional; conditions: CAKI-1, 48 h
# OVCAR-8 = assay: Cytotoxicity against human OVCAR8 cells after 48 hrs by sulforhodamine B assay; format: functional; conditions: OVCAR-8, 48 h
# Mus musculus = assay: Toxicity in athymic nude mouse assessed as survival at 400 mg/kg, ip measured after 2 weeks; format: organism-based; set-up: dose 400 mg/kg, route intraperitoneal; conditions: in vivo, 336 h
Structure (SMILES),GI50 (SF-268) [nM],GI50 (KM12) [nM],GI50 (OVCAR-4) [nM],GI50 (NCI/ADR-RES) [nM],GI50 (U-251) [nM],GI50 (HCT-116) [nM],GI50 (HOP-92) [nM],GI50 (PC-3) [nM],GI50 (IGROV-1) [nM],GI50 (LOX IMVI) [nM],GI50 (T47D) [nM],GI50 (CCRF-CEM) [nM],GI50 (SNB-75) [nM],GI50 (ACHN) [nM],GI50 (HCT-15) [nM],GI50 (HL-60(TB)) [nM],GI50 (BT-549) [nM],GI50 (NCI-H322M) [nM],GI50 [1] [nM],GI50 (NCI-H460) [nM],other results
COc1ccc(C(=O)N/N=C/c2ccc(O)cc2O)cc1Nc1ccnc(C(F)(F)F)c1,316,1580,631,7940,398,251,316,631,631,501,794,251,794,2510,2510,316,501,501,398,3160,GI50 (MOLT-4): 398 nM; GI50 (M14): 794 nM; GI50 (RXF 393): 10000 nM; GI50 (RPMI-8226): 2510 nM; GI50 (SR): 158 nM; GI50 (HOP-62): 501 nM; GI50 (DU-145): 631 nM; GI50 (TK-10): 501 nM; GI50 (SF-295): 794 nM; GI50 (OVCAR-3): 316 nM; GI50 (UACC-62): 501 nM; GI50 (CAKI-1): 631 nM; GI50 (OVCAR-8): 794 nM; Activity (Mus musculus): Non-toxic
O=C(N/N=C/c1cc(Cl)ccc1O)c1ccccc1Nc1ccnc(C(F)(F)F)c1,251,631,251,398,316,200,501,631,316,251,794,79.4,316,316,158,316,794,398,200,316,GI50 (MOLT-4): 200 nM; GI50 (M14): 316 nM; GI50 (RXF 393): 398 nM; GI50 (RPMI-8226): 158 nM; GI50 (SR): 316 nM; GI50 (HOP-62): 251 nM; GI50 (DU-145): 316 nM; GI50 (TK-10): 501 nM; GI50 (SF-295): 398 nM; GI50 (OVCAR-3): 501 nM; GI50 (UACC-62): 398 nM; GI50 (CAKI-1): 398 nM; GI50 (OVCAR-8): 631 nM
O=C(N/N=C/c1ccc(O)cc1O)c1cccc(Nc2ccnc(C(F)(F)F)c2)c1,631,2510,501,3980,794,501,1580,1260,1260,501,501,398,6310,2000,3160,501,631,316,1000,3160,GI50 (MOLT-4): 631 nM; GI50 (M14): 631 nM; GI50 (RXF 393): 1260 nM; GI50 (RPMI-8226): 3980 nM; GI50 (SR): 398 nM; GI50 (HOP-62): 501 nM; GI50 (DU-145): 1580 nM; GI50 (TK-10): 2510 nM; GI50 (SF-295): 2000 nM; GI50 (OVCAR-3): 316 nM; GI50 (UACC-62): 398 nM; GI50 (CAKI-1): 3160 nM; GI50 (OVCAR-8): 631 nM
CCOc1cccc(/C=N/NC(=O)c2ccc(Nc3ccnc(C(F)(F)F)c3)cc2)c1O,1260,1580,794,3160,1580,398,631,398,501,631,1580,501,631,1000,631,1260,1580,1260,1000,501,GI50 (MOLT-4): 251 nM; GI50 (M14): 1260 nM; GI50 (RXF 393): 398 nM; GI50 (RPMI-8226): 398 nM; GI50 (SR): 251 nM; GI50 (HOP-62): 1260 nM; GI50 (DU-145): 3980 nM; GI50 (TK-10): 2510 nM; GI50 (SF-295): 1260 nM; GI50 (OVCAR-3): 316 nM; GI50 (UACC-62): 794 nM; GI50 (CAKI-1): 631 nM; GI50 (OVCAR-8): 631 nM
CCOc1cccc(/C=N/NC(=O)c2cccc(Nc3ccnc(C(F)(F)F)c3)c2)c1O,631,1260,631,3160,1260,398,3160,1000,794,631,631,251,7940,1000,2000,251,1580,631,794,1000,GI50 (MOLT-4): 316 nM; GI50 (M14): 1260 nM; GI50 (RXF 393): 1000 nM; GI50 (RPMI-8226): 2000 nM; GI50 (SR): 158 nM; GI50 (HOP-62): 794 nM; GI50 (DU-145): 631 nM; GI50 (TK-10): 1260 nM; GI50 (SF-295): 2000 nM; GI50 (OVCAR-3): 200 nM; GI50 (UACC-62): 631 nM; GI50 (CAKI-1): 1000 nM; GI50 (OVCAR-8): 794 nM
O=C(N/N=C/c1ccc(O)cc1O)c1ccc(Nc2ccnc(C(F)(F)F)c2)cc1,39.8,> 100000,39.8,> 100000,63.1,39800,15800,20000,15800,2510,79.4,31.6,3980,31600,> 100000,12600,10,19.9,6310,> 100000,GI50 (M14): > 100000 nM; GI50 (RXF 393): 12600 nM; GI50 (RPMI-8226): > 100000 nM; GI50 (SR): > 100000 nM; GI50 (DU-145): 20000 nM; GI50 (TK-10): 50.1 nM; GI50 (SF-295): 10 nM; GI50 (OVCAR-3): 25.1 nM; GI50 (UACC-62): 50.1 nM; GI50 (CAKI-1): 50.1 nM; GI50 (OVCAR-8): 3160 nM
O=C(Cc1ccc(Nc2ccnc(C(F)(F)F)c2)cc1)N/N=C/c1ccccc1O,2510,2000,3160,3160,2000,2000,2510,794,794,1000,3980,1260,2000,1580,631,2510,2510,2510,3160,794,GI50 (MOLT-4): 1000 nM; GI50 (M14): 2000 nM; GI50 (RXF 393): 1580 nM; GI50 (RPMI-8226): 1000 nM; GI50 (SR): 316 nM; GI50 (HOP-62): 2510 nM; GI50 (DU-145): 5010 nM; GI50 (TK-10): 7940 nM; GI50 (SF-295): 2510 nM; GI50 (OVCAR-3): 794 nM; GI50 (UACC-62): 2000 nM; GI50 (CAKI-1): 1000 nM; GI50 (OVCAR-8): 2510 nM
CCOc1cccc(/C=N/NC(=O)Cc2ccc(Nc3ccnc(C(F)(F)F)c3)cc2)c1O,1260,3980,794,3980,1580,1260,2000,2000,2510,1580,2510,316,12600,1580,1000,1000,2510,2510,3980,1580,GI50 (MOLT-4): 501 nM; GI50 (M14): 2000 nM; GI50 (RXF 393): 3160 nM; GI50 (RPMI-8226): 501 nM; GI50 (SR): 316 nM; GI50 (HOP-62): 2510 nM; GI50 (DU-145): 2000 nM; GI50 (TK-10): 3980 nM; GI50 (SF-295): 3980 nM; GI50 (OVCAR-3): 398 nM; GI50 (UACC-62): 1580 nM; GI50 (CAKI-1): 2510 nM; GI50 (OVCAR-8): 3160 nM
